Here are results for one molecule from the NIST ThermoML archive (doi:10.1021/je700746a).

Numbers after ± are expanded uncertainties.

For the data set the following is noted: 298.15 K; 101.33 kPa; Liquid.

With `CC(=O)CC(C)C` [4-methylpentan-2-one], the viscosity came to 0.56 ± 0.04 mPa·s.
